SMILES strings stand for the structures. A value given as a limit tells only on which side of the number the result lay.

Our source for the IC50 values is BindingDB's records for doi:10.1021/jm00093a008 (Technical University of Denmark, 1992).

The first experiment can be described thus: Concentration inhibiting Clostridium histolyticum collagenase.
As for `COC1C(O[C@@H]2c3c(cc4c(c3O)C(=O)c3c(O)cccc3C4=O)C(=O)[C@@](C)(O)[C@H]2OC)OC(C)C(O)C1O` (stereo not given in full), the midpoint of inhibition, the IC50, lay at 370 nM.

Turning to `COC1C(O[C@@H]2c3c(cc4c(c3O)C(=O)c3c(O)c(N(C)C)cc(N(C)C)c3C4=O)C(=O)[C@@](C)(O)[C@H]2OC)OC(C)C(O)C1O` (stereo not given in full), the IC50 (in general, the concentration that inhibits the measured activity by half) is over 100000 nM.

In turn, `COC1C(O[C@@H]2c3c(cc4c(c3O)C(=O)c3c(O)cccc3C4=O)C(=O)[C@](C)(O)[C@H]2OC)OC(C)C(O)C1O` (stereo not given in full) gave a half-inhibitory concentration (IC50) of 3000 nM.

Regarding `COC1C(O[C@@H]2c3c(cc4c(c3O)C(=O)c3c(O)cccc3C4=O)C(=O)[C@@](C)(O)[C@H]2OC)OC(C)C(O)C1O[Si](C)(C)C(C)(C)C` (stereo not given in full), 17000 nM corresponded to half-maximal inhibition (IC50). This IC50 is about 5.7-fold higher than that of the compound before.

Compound `COC1C(O[C@@H]2c3c(cc4c(c3O)C(=O)c3c(ccc(N(C)C)c3O)C4=O)C(=O)[C@@](C)(O)[C@H]2OC)OC(C)C(O)C1O` (stereo not given in full) registered an IC50 of 2000 nM.

For the compound `CO[C@H]1[C@H](O)c2c(cc3c(c2O)C(=O)c2c(O)cccc2C3=O)C(=O)[C@@]1(C)O`, half-maximal inhibition (IC50) was put at 19000 nM. Against the preceding compound, the IC50 is about 9.5-fold higher.

`CCOP(=O)(OCC)O[C@]1(C)C(=O)c2cc3c(c(O)c2[C@@H](OC2OC(C)C(O)C(O)C2OC)[C@@H]1OC)C(=O)c1c(O)cccc1C3=O` (stereo not given in full) returned an IC50 of 220 nM. This IC50 is about 86-fold lower than that of the compound before.

Take `COC1C(O[C@@H]2c3c(cc4c(c3O)C(=O)c3c(O)cccc3C4=O)C(=O)[C@@](C)(O)[C@H]2OC)OC(C)C(OC(C)=O)C1OC(C)=O` (stereo not given in full): the IC50 was over 100000 nM.

Take `COC1C(C)OC(O[C@@H]2c3c(cc4c(c3O)C(=O)c3c(O)cccc3C4=O)C(=O)[C@@](C)(O)[C@H]2OC)C(OC)C1OC` (stereo not given in full): the concentration for half-maximal inhibition (IC50) turned out to be 670 nM.

Assay in the next experiment: as above
The source holds these as a separate data set.
Consider `CC[C@@]1(O)C[C@H](O[C@H]2C[C@H](N(C)C)[C@H](O[C@H]3C[C@H](O)[C@H](O[C@H]4CCC(=O)[C@H](C)O4)[C@H](C)O3)[C@H](C)O2)c2c(cc3c(c2O)C(=O)c2c(O)cccc2C3=O)[C@H]1C(=O)OC` [ACLACINOMYCIN A], for which the midpoint of inhibition, the IC50, lay at 9900 nM.
